Results as given in US10105357B2, “Indication of antibiotic drugs for preparation of cancer inhibition pharmaceutical composition” (LAUNX BIOMEDICAL CO., LTD., priority 2014, dated 2018).
Read-outs that look alike come from different tables or passages of the source.

Columns and labels:
Format in all cases: cell-based, human
[1] = system: cancer cell lines; experiment: Cell viability analysis (WST-1) on cancer cell lines; conditions: drug 10 μM, 72 hours, WST-1; Table 3
[2] = system: TOV-21G; experiment: Cell viability analysis, ovarian cancer TOV-21G; conditions: Homo sapiens, TOV21G, 72 h, read-out: The results of antibiotic drug inhibiting cancer cell lines (cell viability analysis), TOV-21G
[3] = system: U-2OS; experiment: Cell viability analysis, osteosarcoma U-2OS; conditions: Homo sapiens, U2OS, 72 h, read-out: The results of antibiotic drug inhibiting cancer cell lines (cell viability analysis), U2OS
[4] = system: MDA-MB-231 (Mammary Gland, Adenocarcinoma); experiment: Cell viability analysis, breast cancer MDA-MB-231; conditions: Homo sapiens, MDA-MB-231, 72 h, read-out: The results of antibiotic drug inhibiting cancer cell lines (cell viability analysis), MDA-MB231
[5] = system: C-33A (Cervical carcinoma); experiment: Cell viability analysis, cervical cancer C-33A; conditions: Homo sapiens, C-33-A, 72 h, read-out: The results of antibiotic drug inhibiting cancer cell lines (cell viability analysis), C-33A
[6] = system: AsPC-1; experiment: Cell viability analysis, pancreatic cancer AsPC-1; conditions: Homo sapiens, ASPC1, 72 h, read-out: The results of antibiotic drug inhibiting cancer cell lines (cell viability analysis), AsPC-1
[7] = system: NIH: OVCAR-3; experiment: Cell viability analysis, ovarian cancer NIH: OVCAR-3; conditions: Homo sapiens, OVCAR-3, 72 h, read-out: The results of antibiotic drug inhibiting cancer cell lines (cell viability analysis), NIH-OVCAR-3
[8] = system: A375 (Amelanotic Melanoma); experiment: Cell viability analysis, skin cancer A375; conditions: Homo sapiens, A-375, 72 h
[9] = system: AGS (Gastric Adenocarcinoma); experiment: Cell viability analysis, gastric cancer AGS; conditions: Homo sapiens, 72 h
[10] = system: HepG2 (Hepatocellular Carcinoma); experiment: Cell viability analysis, hepatic cancer HepG2; conditions: Homo sapiens, HepG2, 72 h
[11] = system: A549 (Lung Adenocarcinoma); experiment: Cell viability analysis, lung cancer A549; conditions: Homo sapiens, A549, 72 h
[12] = system: TSGH-8301 (Urinary Bladder Carcinoma); experiment: Cell viability analysis, bladder cancer TSGH-8301; conditions: Homo sapiens, 72 h
[13] = system: T24; experiment: Cell viability analysis, bladder cancer T24; conditions: Homo sapiens, T-24, 72 h, read-out: The results of antibiotic drug inhibiting cancer cell lines (cell viability analysis), T24
[14] = system: BxPC-3; experiment: Cell viability analysis, pancreatic cancer BxPC-3; conditions: Homo sapiens, BXPC-3, 72 h, read-out: The results of antibiotic drug inhibiting cancer cell lines (cell viability analysis), BxPC-3
[15] = system: HL-60 (Acute Promyelocytic Leukemia); experiment: Cell viability analysis, leukemia HL-60; conditions: Homo sapiens, HL-60, 72 h, read-out: cell viability (survival rate), HL-60, drug 10 μM, 72 hours, WST-1, OD450 nm
[16] = system: SAS (Tongue squamous cell carcinoma); experiment: Cell viability analysis, tongue cancer SAS; conditions: Homo sapiens, 72 h, read-out: The results of antibiotic drug inhibiting cancer cell lines (cell viability analysis), SAS
[17] = system: BCC (basal cell carcinoma); experiment: Cell viability analysis, skin cancer BCC; conditions: Homo sapiens, 72 h, read-out: The results of antibiotic drug inhibiting cancer cell lines (cell viability analysis), BCC
[18] = system: MKN-45 (Gastric Adenocarcinoma); experiment: Cell viability analysis, gastric cancer MKN-45; conditions: Homo sapiens, MKN-45, 72 h
[19] = system: Hep3B (hepatocellular carcinoma); experiment: Cell viability analysis, hepatic cancer Hep3B; conditions: Homo sapiens, Hep3B, 72 h, read-out: The results of antibiotic drug inhibiting cancer cell lines (cell viability analysis), Hep3B
[20] = system: HeLa (Cervix Adenocarcinoma); experiment: Cell viability analysis, cervical cancer HeLa; conditions: Homo sapiens, HeLa, 72 h
[21] = system: PC3 (p53−) (Prostate Adenocarcinoma); experiment: Cell viability analysis, prostate cancer PC3; conditions: Homo sapiens, 72 h
[22] = system: MCF7 (Mammary Gland, Adenocarcinoma); experiment: Cell viability analysis, breast cancer MCF7; conditions: Homo sapiens, MCF7, 72 h
[23] = system: HI650 (Lung Adenocarcinoma); experiment: Cell viability analysis, lung cancer HI650; conditions: Homo sapiens, NCI-H1650, 72 h
[24] = system: LoVo (Colorectal Adenocarcinoma); experiment: Cell viability analysis, colon cancer LoVo; conditions: Homo sapiens, LoVo, 72 h
[25] = read-out: The results of antibiotic drug inhibiting cancer cell lines (cell viability analysis), A375, A375, repeated experiment
[26] = read-out: cell viability (survival rate), A375, drug 10 μM, 72 hours, WST-1, OD450 nm
[27] = read-out: The results of antibiotic drug inhibiting cancer cell lines (cell viability analysis), AGS, repeated experiment
[28] = read-out: cell viability (survival rate), AGS, drug 10 μM, 72 hours, WST-1, OD450 nm
[29] = read-out: The results of antibiotic drug inhibiting cancer cell lines (cell viability analysis), HepG2, HepG2, repeated experiment
[30] = read-out: cell viability (survival rate), HepG2, drug 10 μM, 72 hours, WST-1, OD450 nm
[31] = read-out: The results of antibiotic drug inhibiting cancer cell lines (cell viability analysis), A549, A549, repeated experiment
[32] = read-out: cell viability (survival rate), A549, drug 10 μM, 72 hours, WST-1, OD450 nm
[33] = read-out: The results of antibiotic drug inhibiting cancer cell lines (cell viability analysis), TSGH-8301, TSGH-8301, repeated experiment
[34] = read-out: cell viability (survival rate), TSGH, drug 10 μM, 72 hours, WST-1, OD450 nm
[35] = read-out: The results of antibiotic drug inhibiting cancer cell lines (cell viability analysis), MKN-45, MKN-45, repeated experiment
[36] = read-out: cell viability (survival rate), MKN-45, drug 10 μM, 72 hours, WST-1, OD450 nm
[37] = read-out: The results of antibiotic drug inhibiting cancer cell lines (cell viability analysis), HeLa, repeated experiment
[38] = read-out: cell viability (survival rate), HeLa, drug 10 μM, 72 hours, WST-1, OD450 nm
[39] = read-out: The results of antibiotic drug inhibiting cancer cell lines (cell viability analysis), PC-3, PC-3, repeated experiment
[40] = read-out: cell viability (survival rate), PC3, drug 10 μM, 72 hours, WST-1, OD450 nm
[41] = read-out: The results of antibiotic drug inhibiting cancer cell lines (cell viability analysis), MCF-7, MCF-7, repeated experiment
[42] = read-out: cell viability (survival rate), MCF7, drug 10 μM, 72 hours, WST-1, OD450 nm
[43] = read-out: The results of antibiotic drug inhibiting cancer cell lines (cell viability analysis), H1650, H1650, repeated experiment
[44] = read-out: cell viability (survival rate), H1650, drug 10 μM, 72 hours, WST-1, OD450 nm
[45] = read-out: The results of antibiotic drug inhibiting cancer cell lines (cell viability analysis), LoVo, repeated experiment
[46] = read-out: cell viability (survival rate), LoVo, drug 10 μM, 72 hours, WST-1, OD450 nm

For `COc1cc(NC(C)CCCN)c2ncccc2c1` (stereo not shown) [Primaquine Diphosphate], the “inhibition effect on different cancer cell lines” value [1] was “significant inhibition effect”, the viability at 10 µM [2] was 54.8% and the viability at 10 µM [3] was 59.6%. For the same molecule, the viability at 10 µM [4] was 65.4%, the viability at 10 µM [5] was 96.8% and the viability at 10 µM [6] was 66.5%. For the same molecule, the viability at 10 µM [7] was 60.2%, the viability at 10 µM [8, 25] was 38.7% and the viability at 10 µM [8, 26] was 44.6%. It also gave a viability at 10 µM [9, 27] of 37.1%, a viability at 10 µM [9, 28] of 43.9% and a viability at 10 µM [10, 29] of 81%. For the same molecule, the viability at 10 µM [10, 30] was 81.4%, the viability at 10 µM [11, 31] was 47.4% and the viability at 10 µM [11, 32] was 31.4%. For the same molecule, the viability at 10 µM [12, 33] was 51.5%, the viability at 10 µM [12, 34] was 55.5% and the viability at 10 µM [13] was 72.6%. It also gave a viability at 10 µM [14] of 49.8%, a viability at 10 µM [15] of 34.1% and a viability at 10 µM [16] of 59.9%. The viability at 10 µM [17] was 35.9%, the viability at 10 µM [18, 35] was 63.1% and the viability at 10 µM [18, 36] was 64.3%. It also gave a viability at 10 µM [19] of 115%, a viability at 10 µM [20, 37] of 61.2% and a viability at 10 µM [20, 38] of 55%. The viability at 10 µM [21, 39] was 65.7%, the viability at 10 µM [21, 40] was 60.3% and the viability at 10 µM [22, 41] was 50.7%. It also gave a viability at 10 µM [22, 42] of 36.7%, a viability at 10 µM [23, 43] of 66.8% and a viability at 10 µM [23, 44] of 56.4%. The viability at 10 µM [24, 45] was 81.2% and the viability at 10 µM [24, 46] was 72.6%.
In the case of `Clc1ccc(COC(Cn2ccnc2)c2ccc(Cl)cc2Cl)c(Cl)c1` (stereo not shown) [Miconazole nitrate], the “inhibition effect on different cancer cell lines” value [1] is reported as “significant inhibition effect”, the viability at 10 µM [2] is reported as 80.6% and the viability at 10 µM [3] is reported as 64.2%. The viability at 10 µM [4] was 107%, the viability at 10 µM [5] was 117% and the viability at 10 µM [6] was 75.5%. It also gave a viability at 10 µM [7] of 94.8%, a viability at 10 µM [8, 25] of 100% and a viability at 10 µM [8, 26] of 31.5%. For the same molecule, the viability at 10 µM [9, 27] was 114%, the viability at 10 µM [9, 28] was 51.1% and the viability at 10 µM [10, 29] was 108%. The viability at 10 µM [10, 30] was 104%, the viability at 10 µM [11, 31] was 97.3% and the viability at 10 µM [11, 32] was 37.3%. For the same molecule, the viability at 10 µM [12, 33] was 102%, the viability at 10 µM [12, 34] was 41.8% and the viability at 10 µM [13] was 77.7%. It also gave a viability at 10 µM [14] of 65.3%, a viability at 10 µM [15] of 41.4% and a viability at 10 µM [16] of 69.6%. It also gave a viability at 10 µM [17] of 80.7%, a viability at 10 µM [18, 35] of 99.8% and a viability at 10 µM [18, 36] of 45%. It also gave a viability at 10 µM [19] of 126%, a viability at 10 µM [20, 37] of 95.7% and a viability at 10 µM [20, 38] of 57.6%. It also gave a viability at 10 µM [21, 39] of 116%, a viability at 10 µM [21, 40] of 30.4% and a viability at 10 µM [22, 41] of 95.6%. The viability at 10 µM [22, 42] was 50.7%, the viability at 10 µM [23, 43] was 83.1% and the viability at 10 µM [23, 44] was 68.8%. It also gave a viability at 10 µM [24, 45] of 81.3% and a viability at 10 µM [24, 46] of 62.1%.
